Experimental data reported in paper PMC6364417, “Kinase inhibitor library screening identifies synergistic drug combinations effective in sensitive and resistant melanoma cells” (Journal of Experimental & Clinical Cancer Research : CR, 2019).

What was measured:
Test in all cases: Kinase inhibitor library screening, PrestoBlue cell viability, 1 or 10 μM, 72 h
501Mel cells (parental) = system: 501Mel cells (parental)
Method: (§1) After 72 h of treatment, cell viability was assessed using the PrestoBlue Cell Viability Reagent (ThermoFisher Scientific). Measurements were performed with the CLARIOstar Monochromator microplate reader (BMG Labtech).
(§2) Kinase inhibitor library screening. […] Each cell line was treated in its sensitive form (parental), and also as 2 resistant derivatives, which were made resistant to either Vemurafenib (XP) or Dabrafenib (GP). Drugs were added at 2 different concentrations, 1 and 10 μM, for 72 h and cell viability was assessed using the PrestoBlue Cell Viability assay. Results are depicted as % viability compared to untreated cells. Each cell line was analyzed at least in duplicate. […] (XLSX 95 kb)

[1] = system: 501Mel-XP cells (Vemurafenib-resistant)
Method: as §1, §2

A375 cells (parental) = system: A375 cells (parental)
Method: as §1, §2

[2] = system: A375-GP cells (Dabrafenib-resistant); conditions: for cell viability (kinase inhibitor library screening): A375 GP
Method: as §1, §2

[3] = system: A375-XP cells (Vemurafenib-resistant); conditions: for cell viability (kinase inhibitor library screening): in %
Method: as §1, §2

IGR37 cells (parental) = system: IGR37 cells (parental)
Method: as §1, §2

[4] = system: IGR37-GP cells (Dabrafenib-resistant)
Method: as §1, §2

[5] = system: IGR37-XP cells (Vemurafenib-resistant)
Method: as §1, §2

[6] = system: 501Mel-GP cells (Dabrafenib-resistant); conditions: 501Mel GP
Method: as §1, §2

C[S+]([O-])c1ccc(-c2nc(-c3ccncc3)c(-c3ccc(F)cc3)[nH]2)cc1 (stereo not shown) [SB 203580]
Cell viability in kinase inhibitor library screening, 501Mel Parental, 1μΜ (501Mel cells (parental); in %): 108.7
Cell viability in kinase inhibitor library screening, 501Mel Parental, 10μΜ (501Mel cells (parental); in %): 95.5
Cell viability in kinase inhibitor library screening, 501Mel XP, 10μΜ ([1]; in %): 92.5
Cell viability in kinase inhibitor library screening, A375 Parental, 1μΜ (A375 cells (parental)): 112.0
Cell viability in kinase inhibitor library screening, A375 Parental, 10μΜ (A375 cells (parental)): 83.0
Cell viability in kinase inhibitor library screening, A375 GP, 1μΜ [2]: 93.4
Cell viability in kinase inhibitor library screening, A375 GP, 10μΜ [2]: 98.4
Cell viability in kinase inhibitor library screening, A375 XP, 1μΜ [3]: 111.6
Cell viability in kinase inhibitor library screening, A375 XP, 10μΜ [3]: 103.1
Cell viability in kinase inhibitor library screening, IGR37 Parental, 1μΜ (IGR37 cells (parental); in %): 116.2
Cell viability in kinase inhibitor library screening, IGR37 Parental, 10μΜ (IGR37 cells (parental); in %): 92.9
Cell viability in kinase inhibitor library screening, IGR37 GP, 10μΜ [4]: 86.6%
Cell viability in kinase inhibitor library screening, IGR37 GP, 1μΜ ([4]; in %): 105.2
Cell viability in kinase inhibitor library screening, IGR37 XP, 10μΜ [5]: 62.9%
Cell viability in kinase inhibitor library screening, IGR37 XP, 1μΜ ([5]; in %): 103.3

NC(=O)c1ccc(-c2nc(-c3ccc4c(c3)OCO4)c(-c3ccccn3)[nH]2)cc1 [SB 431542]
cell viability (kinase inhibitor library screening) (501Mel cells (parental); 501Mel Parental, 1μΜ, in %): 98.3
cell viability (kinase inhibitor library screening) ([6]; 1μΜ, in %): 102.6
cell viability (kinase inhibitor library screening) ([6]; 10μΜ, in %): 85.7
cell viability (kinase inhibitor library screening) ([1]; 501Mel XP, 1μΜ, in %): 93.8
cell viability (kinase inhibitor library screening) ([1]; 501Mel XP, 10μΜ, in %): 79.9
cell viability (kinase inhibitor library screening) (A375 cells (parental); A375 Parental, 1μΜ, in %): 106.2
cell viability (kinase inhibitor library screening) ([2]; 1μΜ, in %): 100.0
cell viability (kinase inhibitor library screening) ([2]; 10μΜ, in %): 98.5
cell viability (kinase inhibitor library screening) ([3]; A375 XP, 1μΜ): 109.0
cell viability (kinase inhibitor library screening) ([3]; A375 XP, 10μΜ): 106.6
cell viability (kinase inhibitor library screening) (IGR37 cells (parental); IGR37 Parental, 10μΜ, in %): 97.8
cell viability (kinase inhibitor library screening) ([4]; IGR37 GP, 1μΜ, in %): 100.4
cell viability (kinase inhibitor library screening) ([4]; IGR37 GP, 10μΜ, in %): 87.9

Cn1cc(-c2ccc3nnc(Sc4ccc5ncccc5c4)n3n2)cn1 [SGX-523]
cell viability (kinase inhibitor library screening) (501Mel cells (parental); 501Mel Parental, 1μΜ, 72 h): 95.0%
cell viability (kinase inhibitor library screening) (501Mel cells (parental); 501Mel Parental, 10μΜ, 72 h): 89.4%
cell viability (kinase inhibitor library screening) ([6]; 1μΜ, 72 h): 82.6%
cell viability (kinase inhibitor library screening) ([6]; 10μΜ, 72 h): 64.3%
cell viability (kinase inhibitor library screening) ([1]; 501Mel XP, 1μΜ, 72 h): 67.2%
cell viability (kinase inhibitor library screening) ([1]; 501Mel XP, 10μΜ, 72 h): 58.8%
cell viability (kinase inhibitor library screening) (A375 cells (parental); A375 Parental, 10μΜ, 72 h): 97.1%
cell viability (kinase inhibitor library screening) (A375 cells (parental); A375 Parental, 1μΜ, 72 h): 104.5%
cell viability (kinase inhibitor library screening) ([2]; 1μΜ, 72 h): 89.5%
cell viability (kinase inhibitor library screening) ([2]; 10μΜ, 72 h): 94.8%
cell viability (kinase inhibitor library screening) (IGR37 cells (parental); IGR37 Parental, 1μΜ, 72 h): 107.3%
cell viability (kinase inhibitor library screening) (IGR37 cells (parental); IGR37 Parental, 10μΜ, 72 h): 94.5%
cell viability (kinase inhibitor library screening) ([4]; IGR37 GP, 1μΜ, 72 h): 94.1%
cell viability (kinase inhibitor library screening) ([4]; IGR37 GP, 10μΜ, 72 h): 90.7%
cell viability (kinase inhibitor library screening) ([5]; IGR37 XP, 1μΜ, 72 h): 100.4%
cell viability (kinase inhibitor library screening) ([5]; IGR37 XP, 10μΜ, 72 h): 74.3%

COc1cc2nccc(Oc3ccc(NC(=O)Nc4cc(C)on4)c(Cl)c3)c2cc1OC [Tivozanib (AV-951)]
cell viability (kinase inhibitor library screening) (501Mel cells (parental); 501Mel Parental, 10μΜ, in %): 74.1
cell viability (kinase inhibitor library screening) ([6]; 1μΜ, in %): 103.1
cell viability (kinase inhibitor library screening) ([6]; 10μΜ, in %): 58.3
cell viability (kinase inhibitor library screening) ([1]; 501Mel XP, 1μΜ, in %): 97.3
cell viability (kinase inhibitor library screening) ([1]; 501Mel XP, 10μΜ, in %): 64.2
cell viability (kinase inhibitor library screening) (A375 cells (parental); A375 Parental, 1μΜ, in %): 104.6
cell viability (kinase inhibitor library screening) (A375 cells (parental); A375 Parental, 10μΜ, in %): 60.4
cell viability (kinase inhibitor library screening) ([2]; 1μΜ, in %): 99.1
cell viability (kinase inhibitor library screening) ([2]; 10μΜ, in %): 54.4
cell viability (kinase inhibitor library screening) ([3]; A375 XP, 1μΜ): 105.9
cell viability (kinase inhibitor library screening) ([3]; A375 XP, 10μΜ): 77.7
cell viability (kinase inhibitor library screening) (IGR37 cells (parental); IGR37 Parental, 1μΜ, in %): 97.2
cell viability (kinase inhibitor library screening) (IGR37 cells (parental); IGR37 Parental, 10μΜ, in %): 83.4
cell viability (kinase inhibitor library screening) ([5]; IGR37 XP, 10μΜ, in %): 55.2

AZD4547
cell viability, 501Mel Parental, 10μΜ (501Mel cells (parental); 501Mel Parental, 10μΜ, 72 h): 11.5
cell viability, 501Mel GP, 10μΜ ([6]; 10μΜ, 72 h): 57.3
cell viability, 501Mel XP, 1μΜ ([1]; 501Mel XP, 1μΜ, 72 h): 93.2
cell viability, 501Mel XP, 10μΜ ([1]; 501Mel XP, 10μΜ, 72 h): 14.1
cell viability, A375 Parental, 10μΜ (A375 cells (parental); A375 Parental, 10μΜ, 72 h): 58.2
cell viability, A375 XP, 1μΜ ([3]; A375 XP, 1μΜ, 72 h): 100.3
cell viability, A375 XP, 10μΜ ([3]; A375 XP, 10μΜ, 72 h): 49.7
cell viability, IGR37 Parental, 10μΜ (IGR37 cells (parental); IGR37 Parental, 10μΜ, 72 h): 46.6
cell viability, IGR37 GP, 1μΜ ([4]; IGR37 GP, 1μΜ, 72 h): 93.7
cell viability, IGR37 GP, 10μΜ ([4]; IGR37 GP, 10μΜ, 72 h): 19.5
cell viability, IGR37 XP, 1μΜ ([5]; IGR37 XP, 1μΜ, 72 h): 94.4
cell viability, IGR37 XP, 10μΜ ([5]; IGR37 XP, 10μΜ, 72 h): 6.4
